# Source: ChEMBL document CHEMBL1141060, “A new synthesis of isoaurones: cytotoxic activity of compounds related to the alleged structure of isoaurostatin” (Bioorg Med Chem Lett, 2005)
# Tested on: NCI-H460
# Assay: Cytotoxic activity against human non-small lung carcinoma cell line H460
# Assay type: functional, cell-based
row,Compound,IC50 [µM]
1,COc1ccc(/C=C2/C(=O)Oc3ccccc32)cc1,> 39
2,COc1cc(OC)c2c(c1)OC(=O)/C2=C/c1ccc(OC)c(O)c1,8.8
3,COc1cc(/C=C2/C(=O)Oc3ccccc32)cc(OC)c1OC,37.7
4,CC(=O)Oc1ccc(/C=C2/C(=O)Oc3ccc(OC(C)=O)cc32)cc1,> 50
5,O=C1Oc2ccccc2/C1=C\c1ccc(OC(=O)c2ccccc2)cc1,> 30
6,O=C1Oc2ccccc2/C1=C\c1ccc(O)cc1,10.1
7,COc1ccc(/C=C2/C(=O)Oc3ccccc32)cc1O,9.3
